Laboratory results: patent EP0013144A1, “Substituted diphenylamine derivatives, compositions and herbicidal uses thereof, and processes for their preparation” (ICI AUSTRALIA LIMITED, priority 1978, dated 1980)

Legend:
Assay type in all cases: in vivo
[1] = system: Ryegrass; assay: Pre-emergence herbicidal activity (Example 31); set-up: key: 0-3 scale: 0 = 0-25% damage, 3 = 75-99% kill, 3+ = 100% kill; conditions: after three weeks
How it was run: (§1)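 Visual damage score at three weeks: 0 = 0–25% damage, 3 = 75–99% kill, 3+ = 100% kill. Soil boxes with seeds sown 2 cm deep were sprayed before emergence with water-diluted emulsifiable concentrate or suspension, then grown in a glasshouse alongside unsprayed controls.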

[2] = system: Wheat; assay: Pre-emergence herbicidal activity (Example 31); set-up: key: 0-3 scale: 0 = 0-25% damage, 3 = 75-99% kill, 3+ = 100% kill; conditions: 1 kg/ha, after three weeks
How it was run: as §1

[3] = system: Japanese millet; assay: Post-emergence herbicidal activity (Example 32); conditions: 3 weeks after spraying
How it was run: (§2)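 Visual damage rating, 0 to 3 (0 = 0–25% damage, 3 = 75–99% kill, 3+ = 100% kill), taken 3 weeks post-spray versus untreated boxes. Plants were sown 2 cm deep in seed boxes, glasshouse-grown and sub-irrigated. They were treated at 10–12.5 cm height with water-diluted formulations.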

[4] = system: Ryegrass; assay: Post-emergence herbicidal activity (Example 32); conditions: 3 weeks after spraying
How it was run: as §2

[5] = system: Ipomea; assay: Post-emergence herbicidal activity (Example 32); conditions: 3 weeks after spraying
How it was run: as §2

[6] = system: Wild Oats; assay: Post-emergence herbicidal activity (Example 32); conditions: 3 weeks after spraying
How it was run: as §2

[7] = system: Japanese millet; assay: Pre-emergence herbicidal activity (Example 31); conditions: after three weeks
How it was run: as §1

[8] = system: Ipomea; assay: Pre-emergence herbicidal activity (Example 31); conditions: after three weeks
How it was run: as §1

[9] = system: Wild Oats; assay: Pre-emergence herbicidal activity (Example 31); conditions: after three weeks
How it was run: as §1

[10] = system: Mustard; assay: Pre-emergence herbicidal activity (Example 31); conditions: after three weeks
How it was run: as §1

[11] = system: Sunflower; assay: Pre-emergence herbicidal activity (Example 31); conditions: after three weeks
How it was run: as §1

[12] = system: Wheat; assay: Post-emergence herbicidal activity (Example 32); set-up: key: 0-3 scale: 0 = 0-25% damage, 3 = 75-99% kill, 3+ = 100% kill; conditions: 3 weeks after spraying
How it was run: as §2

[13] = system: Echinochloa crus-galli; assay: Selective herbicidal activity, young pot plants (Example 35); conditions: weed; post-emergence; 0.08 kg/ha; after 20 days; mean of triplicate
Method: (§3) The compounds were formulated for test by mixing an appropriate amount with 5 ml of an emulsion prepared by diluting 160 ml of a solution containing 21.8 g per litre of "Span" 80 and 78.2 g per litre of "Tween" 20 in methylcyclohexanone to 500 ml with water. "Span" 80 is a Trade Mark for a surface-active agent comprising sorbitan monolaurate. "Tween" 20 is a Trade Mark for a surface-active agent comprising a condensate of sorbitan monolaurate with 20 molar proportions of ethylene oxide. Each 5 ml emulsion containing a test compound was then diluted to 40 ml with water and sprayed on to young pot plants (post-emergence test) of the species named in Table 7 below. Damage to test plants was assessed after 20 days on a scale of 0 to 9 whereo 0 is 0 to 10% and 9 is 90 to 100% kill. The tests were carried out in triplicate and the mean results are recorded in Table 7 below.

[14] = system: Sorghum halepense; assay: as above; conditions: weed; post-emergence; 0.08 kg/ha; after 20 days; mean of triplicate
Method: as §3

[15] = system: Digitaria sanguinalis; assay: as above; conditions: weed; post-emergence; 0.08 kg/ha; after 20 days; mean of triplicate
Method: as §3

[16] = system: Cotton (Deltapine); assay: as above; conditions: crop; post-emergence; 0.08 kg/ha; after 20 days; mean of triplicate
Method: as §3

[17] = system: Soyabean (Amsoy); assay: as above; conditions: crop; post-emergence; 0.08 kg/ha; after 20 days; mean of triplicate
Method: as §3

[18] = system: Setaria viridis; assay: as above; conditions: weed; post-emergence; 0.08 kg/ha; after 20 days; mean of triplicate
Method: as §3

[19] = system: Sorghum halepense; assay: Selective herbicidal activity, seed boxes (Example 34); conditions: weed; 0.15 kg/ha; sprayed on one week old seedlings; 29 days after spraying; triplicate
Source text: (§4) The seeds of the test species were sprinkled onto . the surface of soil in seed boxes and covered with a thin layer of sand. The boxes were lightly watered with an overhead spray and placed in a glasshouse for one week to permit germination of the seeds and plant growth to a height of 4 to 5 inches. […] For comparison purposes at least one box containing one week old seedlings was sprayed lightly with water only. After spraying the boxes were returned to the glasshouse for a further 29 days after which the effect of the treatment was visually assessed.

[20] = system: Soyabean; assay: as above; conditions: crop; 1.5 kg/ha; sprayed on one week old seedlings; 29 days after spraying; triplicate
Source text: as §4

[21] = system: Japanese millet; assay: as above; conditions: weed; 0.15 kg/ha; sprayed on one week old seedlings; 29 days after spraying; triplicate
Source text: as §4

[22] = system: Setaria aviceps; assay: as above; conditions: weed; 0.15 kg/ha; sprayed on one week old seedlings; 29 days after spraying; triplicate
Source text: as §4

[23] = system: Annual Rye Grass; assay: as above; conditions: weed; 0.15 kg/ha; sprayed on one week old seedlings; 29 days after spraying; triplicate
Source text: as §4

[24] = system: Wild Oats; assay: as above; conditions: weed; 0.15 kg/ha; sprayed on one week old seedlings; 29 days after spraying; triplicate
Source text: as §4

[25] = system: Cotton; assay: as above; conditions: crop; 1.5 kg/ha; sprayed on one week old seedlings; 29 days after spraying; triplicate
Source text: as §4

COC(=O)C(C)Oc1ccc(Nc2ccc(C(F)(F)F)cc2[N+](=O)[O-])cc1 (stereo not drawn) [Compound 21, Methyl 2-[4-(2-nitro-4-trifluoromethylanilino)phenoxy]-propionate]
damage to plants, Rg ([1]; 0.5 kg/ha): 3+ (3+ represents 100% kill)
damage to plants, Rg ([1]; 1 kg/ha): 3+ (3+ represents 100% kill)
damage to plants, Rg ([1]; 5 kg/ha): 3+ (3+ represents 100% kill)
damage to plants, Wh [2]: 2
damage to plants, Jm ([3]; 1 kg/ha): 3+ (3+ represents 100% kill)
damage to plants, Jm ([3]; 5 kg/ha): 3+ (3+ represents 100% kill)
damage to plants, Rg ([4]; 1 kg/ha): 3+ (3+ represents 100% kill)
damage to plants, Rg ([4]; 5 kg/ha): 3+ (3+ represents 100% kill)
damage to plants, Ip ([5]; 1 kg/ha): 0 (0 represents 0 to 25% damage)
damage to plants, Ip ([5]; 5 kg/ha): 2
damage to plants, Ot ([6]; 1 kg/ha): 3 (3 represents 75 to 99% kill)
damage to plants, Ot ([6]; 5 kg/ha): 3+ (3+ represents 100% kill)
damage to plants, Jm ([7]; 0.5 kg/ha): 3+ (3+ represents 100% kill)
damage to plants, Jm ([7]; 1 kg/ha): 3+ (3+ represents 100% kill)
damage to plants, Jm ([7]; 5 kg/ha): 3+ (3+ represents 100% kill)
damage to plants, Ip ([8]; 0.5 kg/ha): 0 (0 represents from 0 to 25% damage)
damage to plants, Ip ([8]; 1 kg/ha): 0 (0 represents from 0 to 25% damage)
damage to plants, Ip ([8]; 5 kg/ha): 0 (0 represents from 0 to 25% damage)
damage to plants, Ot ([9]; 0.5 kg/ha): 3 (3 represents 75 to 99% kill)
damage to plants, Ot ([9]; 1 kg/ha): 3+ (3+ represents 100% kill)
damage to plants, Ot ([9]; 5 kg/ha): 3+ (3+ represents 100% kill)
damage to plants, Ms ([10]; 0.5 kg/ha): 0 (0 represents from 0 to 25% damage)
damage to plants, Ms ([10]; 1 kg/ha): 0 (0 represents from 0 to 25% damage)
damage to plants, Ms ([10]; 5 kg/ha): 0 (0 represents from 0 to 25% damage)
damage to plants, Sf ([11]; 0.5 kg/ha): 0 (0 represents from 0 to 25% damage)
damage to plants, Sf ([11]; 1 kg/ha): 0 (0 represents from 0 to 25% damage)
damage to plants, Sf ([11]; 5 kg/ha): 0 (0 represents from 0 to 25% damage)
damage to plants, Wh ([12]; 1 kg/ha): 3 (3 represents 75 to 99% kill)
damage to plants, Wh ([12]; 5 kg/ha): 3+ (3+ represents 100% kill)
damage to test plants, Ec [13]: 5
damage to test plants, Sh [14]: 9 (9 is 90 to 100% kill)
damage to test plants, Dg [15]: 5
damage to test plants, Ct [16]: 0 (0 is 0 to 10%)
damage to test plants, Sy [17]: 0 (0 is 0 to 10%)
damage to test plants, St [18]: 8

CC(Oc1ccc(Nc2ccc(C(F)(F)F)cc2[N+](=O)[O-])cc1)C(=O)[O-].[Na+] (stereo not drawn) [Compound 65, 2-[4-(2-Nitro-4-trifluoromethylanilino)phenoxy]-propionic acid sodium salt]
percentage damage, Sh [19]: 80 percentage
percentage damage, Sb [20]: 0 percentage
percentage damage, Jm [21]: 100 percentage
percentage damage, St [22]: 50 percentage
percentage damage, Rg [23]: 35 percentage
percentage damage, Ot [24]: 58 percentage
percentage damage, Ct [25]: 0 percentage
damage to test plants, Ec [13]: 9 (9 is 90 to 100% kill)
damage to test plants, Sh [14]: 8
damage to test plants, Dg [15]: 3
damage to test plants, Ct [16]: 0 (0 is 0 to 10%)
damage to test plants, Sy [17]: 0 (0 is 0 to 10%)
damage to test plants, St [18]: 2
